Source: ChEMBL document CHEMBL1614629, “Extrapolation of human pharmacokinetic parameters from rat, dog, and monkey data: Molecular properties associated with extrapolative success or failure” (J Pharm Sci, 2005)

Legend:
[1] = Volume of distribution at steady state in monkey after iv administration; assay type: ADME, organism-based; details: macaca, in vivo, read-out: Vdss
[2] = Clearance in human after iv administration; assay type: ADME, organism-based; details: in vivo
[3] = Volume of distribution at steady state in dog after iv administration; assay type: ADME, organism-based, Canis lupus familiaris; details: in vivo, read-out: Vdss
[4] = Clearance in monkey after iv administration; assay type: ADME, organism-based; details: macaca, in vivo
[5] = Clearance in rat after iv administration; assay type: ADME, organism-based; details: in vivo
[6] = Volume of distribution at steady state in human after iv administration; assay type: ADME, organism-based; details: in vivo; for Vd: read-out: Vdss
[7] = Volume of distribution at steady state in rat after iv administration; assay type: ADME, organism-based; details: in vivo
[8] = Clearance in dog after iv administration; assay type: ADME, organism-based, Canis lupus familiaris; details: in vivo

SMILES: CCCCCNC(=O)c1coc([C@H]2[C@@H](Cc3ccccc3CCC(=O)O)[C@@H]3CC[C@H]2O3)n1 [IFETROBAN]
- Vd [1]: 5.5 L/kg
- clearance [2]: 6.4 mL/min/kg
- Vd [3]: 11 L/kg
- clearance [4]: 19 mL/min/kg
- clearance [5]: 88 mL/min/kg
- Vd [6]: 4.4 L/kg
- Vdss [7]: 2.8 L/kg
- clearance [8]: 65 mL/min/kg

SMILES: CC#CCC(C)[C@H](O)/C=C/[C@@H]1[C@H]2C/C(=C/CCCC(=O)O)C[C@H]2C[C@H]1O (some centres not stated) [ILOPROST]
- Vd [1]: 0.9 L/kg
- clearance [2]: 17 mL/min/kg
- Vd [3]: 0.9 L/kg
- clearance [4]: 58 mL/min/kg
- clearance [5]: 32 mL/min/kg
- Vd [6]: 0.4 L/kg
- Vdss [7]: 0.8 L/kg
- clearance [8]: 67 mL/min/kg

SMILES: COc1ccc2c(c1)c(CC(=O)O)c(C)n2C(=O)c1ccc(Cl)cc1 [INDOMETHACIN]
- Vd [1]: 1.8 L/kg
- clearance [2]: 2 mL/min/kg
- Vd [3]: 7.4 L/kg
- clearance [4]: 13 mL/min/kg
- clearance [5]: 0.43 mL/min/kg
- Vd [6]: 0.26 L/kg
- Vdss [7]: 0.1 L/kg
- clearance [8]: 0.002 mL/min/kg

SMILES: O=[N+]([O-])O[C@H]1CO[C@H]2[C@@H]1OC[C@H]2O[N+](=O)[O-] [ISOSORBIDE DINITRATE]
- Vd [1]: 1.7 L/kg
- clearance [2]: 3.6 mL/min/kg
- Vd [3]: 3 L/kg
- clearance [4]: 59 mL/min/kg
- clearance [5]: 118 mL/min/kg
- Vdss [6]: 0.05 L/kg
- Vdss [7]: 4.9 L/kg
- clearance [8]: 180 mL/min/kg

SMILES: O=[N+]([O-])O[C@@H]1CO[C@H]2[C@@H]1OC[C@@H]2O [ISOSORBIDE MONONITRATE]
- Vd [1]: 0.5 L/kg
- clearance [2]: 1.7 mL/min/kg
- Vd [3]: 0.8 L/kg
- clearance [4]: 11 mL/min/kg
- clearance [5]: 2.5 mL/min/kg
- Vd [6]: 0.6 L/kg
- Vdss [7]: 0.97 L/kg
- clearance [8]: 6.9 mL/min/kg

SMILES: N[C@@H](Cc1ccc(O)c(O)c1)C(=O)O [LEVODOPA]
- Vd [1]: 0.47 L/kg
- clearance [2]: 23 mL/min/kg
- Vd [3]: 0.4 L/kg
- clearance [4]: 17 mL/min/kg
- clearance [5]: 109 mL/min/kg
- Vd [6]: 1.7 L/kg
- Vdss [7]: 9.8 L/kg
- clearance [8]: 19 mL/min/kg

SMILES: CCOC(=O)C1(c2ccccc2)CCN(C)CC1 [MEPERIDINE]
- Vd [1]: 5.9 L/kg
- clearance [2]: 17 mL/min/kg
- Vd [3]: 2.4 L/kg
- clearance [4]: 1 mL/min/kg
- clearance [5]: 253 mL/min/kg
- Vd [6]: 4.4 L/kg
- Vdss [7]: 24 L/kg
- clearance [8]: 43 mL/min/kg

SMILES: C[C@@H](O)[C@H]1C(=O)N2C(C(=O)O)=C(S[C@@H]3CN[C@H](C(=O)N(C)C)C3)[C@H](C)[C@H]12 [MEROPENEM]
- Vd [1]: 0.3 L/kg
- clearance [2]: 4 mL/min/kg
- Vd [3]: 0.25 L/kg
- clearance [4]: 7 mL/min/kg
- clearance [5]: 47 mL/min/kg
- Vd [6]: 0.3 L/kg
- Vdss [7]: 0.3 L/kg
- clearance [8]: 4 mL/min/kg

SMILES: CN(C)C(=O)CCSC(SCCC(=O)O)c1cccc(/C=C/c2ccc3ccc(Cl)cc3n2)c1 (configuration not stated) [MK-571]
- Vd [1]: 0.32 L/kg
- clearance [2]: 0.92 mL/min/kg
- Vd [3]: 0.23 L/kg
- clearance [4]: 1.9 mL/min/kg
- clearance [5]: 37 mL/min/kg
- Vd [6]: 0.09 L/kg
- Vdss [7]: 0.59 L/kg
- clearance [8]: 4 mL/min/kg

SMILES: CO[C@@]1(NC(=O)C(C(=O)[O-])c2ccc(O)cc2)C(=O)N2C(C(=O)[O-])=C(CSc3nnnn3C)CO[C@@H]21.[Na+].[Na+] (some centres not stated) [MOXALACTAM DISODIUM]
- Vd [1]: 0.16 L/kg
- clearance [2]: 1.2 mL/min/kg
- Vd [3]: 0.2 L/kg
- clearance [4]: 2 mL/min/kg
- clearance [5]: 9.4 mL/min/kg
- Vd [6]: 0.27 L/kg
- Vdss [7]: 0.28 L/kg
- clearance [8]: 2.2 mL/min/kg

SMILES: C#C[C@]1(O)CC[C@H]2[C@@H]3CCc4cc(O)ccc4[C@H]3[C@@H](OC)C[C@@]21C [MOXESTROL]
- Vd [1]: 1.8 L/kg
- clearance [2]: 0.34 mL/min/kg
- Vd [3]: 0.63 L/kg
- clearance [4]: 3.2 mL/min/kg
- clearance [5]: 52 mL/min/kg
- Vd [6]: 0.24 L/kg
- Vdss [7]: 1.4 L/kg
- clearance [8]: 5.2 mL/min/kg

SMILES: COCCOC(=O)C1=C(C)NC(C)=C(C(=O)OC(C)C)C1c1cccc([N+](=O)[O-])c1 (configuration not stated) [NIMODIPINE]
- Vd [1]: 3.6 L/kg
- clearance [2]: 14 mL/min/kg
- Vd [3]: 3.2 L/kg
- clearance [4]: 33 mL/min/kg
- clearance [5]: 56 mL/min/kg
- Vd [6]: 0.9 L/kg
- Vdss [7]: 0.96 L/kg
- clearance [8]: 34 mL/min/kg

SMILES: O=C(O)C[C@H](NC(=O)CP(=O)(O)O)C(=O)O [PALA]
- Vd [1]: 0.35 L/kg
- clearance [2]: 0.8 mL/min/kg
- Vd [3]: 0.6 L/kg
- clearance [4]: 3.7 mL/min/kg
- clearance [5]: 53 mL/min/kg
- Vd [6]: 0.35 L/kg
- Vdss [7]: 4.5 L/kg
- clearance [8]: 7 mL/min/kg

SMILES: Cc1nc(=O)c(C#N)c(NCc2cccnc2)[nH]1 [PELRINONE]
- Vd [1]: 0.85 L/kg
- clearance [2]: 4 mL/min/kg
- Vd [3]: 1.2 L/kg
- clearance [4]: 13 mL/min/kg
- clearance [5]: 28 mL/min/kg
- Vd [6]: 0.35 L/kg
- Vdss [7]: 3.3 L/kg
- clearance [8]: 11 mL/min/kg

SMILES: c1ccc(C2(N3CCCCC3)CCCCC2)cc1 [PHENCYCLIDINE]
- Vd [1]: 7.3 L/kg
- clearance [2]: 4.9 mL/min/kg
- Vd [3]: 17 L/kg
- clearance [4]: 37 mL/min/kg
- clearance [5]: 122 mL/min/kg
- Vd [6]: 6.2 L/kg
- Vdss [7]: 23 L/kg
- clearance [8]: 50 mL/min/kg

SMILES: O=C1NC(=O)C(c2ccccc2)(c2ccccc2)N1 [PHENYTOIN]
- Vd [1]: 7.8 L/kg
- clearance [2]: 0.57 mL/min/kg
- Vd [3]: 1 L/kg
- clearance [4]: 7.9 mL/min/kg
- clearance [5]: 7.4 mL/min/kg
- Vd [6]: 1.4 L/kg
- Vdss [7]: 0.64 L/kg
- clearance [8]: 2.8 mL/min/kg

SMILES: CC1CCCC(C)N1CCCC(O)(c1ccccc1)c1ccccn1 (configuration not stated) [PIRMENOL]
- Vd [1]: 1.4 L/kg
- clearance [2]: 2.5 mL/min/kg
- Vd [3]: 3.3 L/kg
- clearance [4]: 5 mL/min/kg
- clearance [5]: 23 mL/min/kg
- Vd [6]: 1.3 L/kg
- Vdss [7]: 12 L/kg
- clearance [8]: 6 mL/min/kg

SMILES: Nc1nc(/C(=N/O)C(=O)N[C@@H]2C(=O)N3C(C(=O)O)=C(/C=C4\CCN(CC(F)(F)F)C4=O)CS[C@H]23)cs1 [RO 25-6833]
- Vd [1]: 0.12 L/kg
- clearance [2]: 0.38 mL/min/kg
- Vd [3]: 0.24 L/kg
- clearance [4]: 0.78 mL/min/kg
- clearance [5]: 0.95 mL/min/kg
- Vd [6]: 0.12 L/kg
- Vdss [7]: 0.16 L/kg
- clearance [8]: 2.7 mL/min/kg

SMILES: Cc1cccnc1NS(=O)(=O)c1ccc(C#Cc2ccc(O)c(C(=O)O)c2)cc1 [SUSALIMOD]
- Vd [1]: 0.08 L/kg
- clearance [2]: 0.09 mL/min/kg
- Vd [3]: 0.19 L/kg
- clearance [4]: 2 mL/min/kg
- clearance [5]: 62 mL/min/kg
- Vd [6]: 0.12 L/kg
- Vdss [7]: 1.2 L/kg
- clearance [8]: 20 mL/min/kg

SMILES: C#CCCCC(=O)c1cc(C(C)(C)C)c(O)c(C(C)(C)C)c1 [TEBUFELONE]
- Vd [1]: 53 L/kg
- clearance [2]: 9.9 mL/min/kg
- Vd [3]: 81 L/kg
- clearance [4]: 17 mL/min/kg
- clearance [5]: 42 mL/min/kg
- Vd [6]: 30 L/kg
- Vdss [7]: 10 L/kg
- clearance [8]: 32 mL/min/kg

SMILES: O=P(O)(O)C(Sc1ccc(Cl)cc1)P(=O)(O)O [TILUDRONIC ACID]
- Vd [1]: 7 L/kg
- clearance [2]: 0.3 mL/min/kg
- Vd [3]: 3 L/kg
- clearance [4]: 0.83 mL/min/kg
- clearance [5]: 3.3 mL/min/kg
- Vd [6]: 1 L/kg
- Vdss [7]: 15 L/kg
- clearance [8]: 0.5 mL/min/kg

SMILES: CN1C(=O)OC(C)(C)C1=O [TRIMETHADIONE]
- Vd [1]: 0.66 L/kg
- clearance [2]: 0.7 mL/min/kg
- Vd [3]: 0.63 L/kg
- clearance [4]: 1.6 mL/min/kg
- clearance [5]: 5.7 mL/min/kg
- Vd [6]: 0.61 L/kg
- Vdss [7]: 0.66 L/kg
- clearance [8]: 2.9 mL/min/kg

SMILES: Cc1c(C)c2c(c(C)c1O)CCC(C)(COc1ccc(CC3SC(=O)NC3=O)cc1)O2 (configuration not stated) [TROGLITAZONE]
- Vd [1]: 0.71 L/kg
- clearance [2]: 3.5 mL/min/kg
- Vd [3]: 0.77 L/kg
- clearance [4]: 8.3 mL/min/kg
- clearance [5]: 22 mL/min/kg
- Vd [6]: 0.71 L/kg
- Vdss [7]: 1 L/kg
- clearance [8]: 6.6 mL/min/kg

SMILES: CCCC(CCC)C(=O)O [VALPROIC ACID]
- Vd [1]: 0.15 L/kg
- clearance [2]: 0.11 mL/min/kg
- Vd [3]: 0.31 L/kg
- clearance [4]: 4 mL/min/kg
- clearance [5]: 4.2 mL/min/kg
- Vd [6]: 0.15 L/kg
- Vdss [7]: 0.66 L/kg
- clearance [8]: 3 mL/min/kg
